Consider six compounds from patent US5700830A, “Use of nitric oxide-releasing agents for reducing metastasis risk” (The United States of America as represented by the …, priority 1994, dated 1997).

Structures can show the parent of a compound that is named as a salt.

In one data set the test system is DNA synthesis. Conditions: cited from earlier work.
The nature of data set [1]: decomposition half-life and nitric oxide release in aqueous buffer. It is filed as physicochemical. Particulars: pH 7 and 25° C.; for half-life: aqueous buffer. The procedure:
The resulting gel was treated with a few drops of methanol until a homogeneous solution was obtained. The solution was transferred into a micro-Parr bottle and bubbled with nitrogen for 5 min, followed by exposure to 40 psi of NO for 72 h.
The system was degassed and charged with 40 psi of nitric oxide.
The system was evacuated, charged with 40 psi of nitric oxide and kept at 25° C. for 48 h. The white crystalline product was collected by filtration and washed with cold methanol as well as with copious amounts of ether. […] This measurement was based on the loss of the 252-nm chromophore in the ultraviolet spectrum.

Data set [2] deals with RPMI 1846 melanotic melanoma cells adhering to rat mesenteric postcapillary venules. Kind of data set: adhesion of melanoma tumor cells to isolated postcapillary venules. Conditions: 1 mM DETA/NO for 30 min, FIG. 1. Format: cell-based, Syrian hamster (tumor cells); Sprague-Dawley rat (vessels). The procedure:
RPMI 1846, a melanotic melanoma of a Syrian hamster, was obtained from the American Type Culture Collection, Rockville, Md., and grown in McCoy's 5A medium (GIBCO, Grand Island, N.Y.) supplemented with 20% fetal bovine serum (GIBCO, Grand Island, N.Y.) at 37° C. in a humidified 5% CO2 atmosphere. […]
A segment of bowel and attached mesentery was excised and placed in a dissecting chamber containing ice-cold, pH 7.4 PSS (same as APSS but without added serum). […] A television camera mounted on the microscope was used to project the image onto a television monitor and the images were recorded using a videocassette recorder. […]
After a 30-min stabilization period, the vessel was perfused with tumor cell suspension. […] The number of cells sitting on the microvessel was observed and recorded. […] Five minutes later, the number of tumor cells remaining adherent to the vessel wall was counted and recorded. The percentage of adherent cells was calculated by dividing the number of tumor cells remaining adherent to the vessel wall after flow was resumed for 5 minutes by the total number of cells setting on the vessel wall when flow was interrupted. […]

For data set [3] the following is noted: via exhaustion of the relevant enzyme/cofactor system; cited from earlier work.
For data set [4] the following is noted: cited from earlier work.

For the compound `CC(=O)N[C@H](C(=O)O)C(C)(C)SN=O` (racemic) [S-nitroso-N-acetylpenicillamine], the “inhibition of DNA synthesis” value with DNA synthesis is “effective at inhibiting DNA synthesis”.

The compound `CCOC(=O)N1CCN([N+]([O-])=NO)CC1` [1-(4-carbethoxypiperazin-1-yl)-1-oxo-2-hydroxydiazene, sodium salt] registered a half-life in data set [1] of 5 min.

`NCCN(CCN)[N+]([O-])=NO` [DETA/NO]: the “effect on LPS-enhanced tumor cell adhesion to postcapillary venules” value in data set [2] (LPS-treated venules) was “completely blocked the enhancing effect of LPS on tumor cell adhesion”. In addition, in data set [2] (untreated venules, P<0.05), the “effect on tumor cell adhesion to untreated venules” value is “decreased tumor cell adhesion to untreated venules”.

Consider `CSCC[C@H](NC(C)=O)C(=O)N1CCN([N+]([O-])=NO)CC1` [Example V, 1-[4-(N-acetyl-L-methionyl)piperazin-1-yl]-1-oxo-2-hydroxydiazene, sodium salt], for which, in data set [1], the half-life is 6.9 min and the “NO produced per mole of test agent” value is given as 1.72 moles of NO per mole of test agent.

`O=[N+]([O-])OCC(CO[N+](=O)[O-])O[N+](=O)[O-]` [glyceryl trinitrate]: the tolerance entry in data set [3] is recorded as “tolerance to glyceryl trinitrate can develop”.

For the compound Nitric oxide, the “solubility in aqueous media” value in data set [4] is recorded as “limited solubility in aqueous media”.
